What was measured:
C57BL/6J mice = assay: Glucokinase activator in vivo screen (blood glucose after oral dosing); settings: oral gavage 50 mg/kg, two hour fast, blood glucose at 1, 2, 4 and 6 hours post dose
Description: Glucokinase Activator In Vivo Screen Protocol
C57BL/6J mice are orally dosed via gavage with Glucokinase (GK) activator at 50 mg/kg body weight following a two hour fasting period. Blood glucose determinations are made five times during the six hour post-dose study period.
Mice (n=6) are weighed and fasted for a two hour period prior to oral treatment.

SMILES | glucokinase activator in vivo activity when administered orally (decrease in blood glucose compared to vehicle) (C57BL/6J mice) | melting point
CO/N=C1/CCC(CC(C(=O)Nc2cnc(Br)cn2)c2ccc(S(C)(=O)=O)c(Cl)c2)C1 (stereo not shown) [Example 55, N-(5-Bromo-pyrazin-2-yl)-2-(3-chloro-4-methanesulfonyl-phenyl)-3-(3-methoxyimino-cyclopentyl)-propionamide] | excellent glucokinase activator in vivo activity | 91 to 97 °C
CS(=O)(=O)c1ccc(C(CC2CCCC2=O)C(=O)Nc2nccs2)cc1 (stereo not shown) [Example 29, 2-(4-Methanesulfonyl-phenyl)-3-(2-oxo-cyclopentyl)-N-thiazol-2-yl-propionamide] |  | 228 to 230 °C
O=C(Nc1nccs1)C(CC1CCCO1)c1ccc(Cl)c(Cl)c1 (stereo not shown) [Example 2, 2-(3,4-Dichloro-phenyl)-3-(tetrahydro-furan-2-yl)-N-thiazol-2-yl-propionamide] |  | 69 to 71 °C
CNC(=O)NC(=O)C(CC1CCCC1O)c1ccc(Cl)c(Cl)c1 (stereo not shown) [Example 24, 1-[2-(3,4-Dichloro-phenyl)-3-(2-hydroxy-cyclopentyl)-propionyl]-3-methyl-urea] |  | 62 to 64 °C
CC(=O)OC1CCC(CC(C(=O)Nc2nccs2)c2ccc(Cl)c(Cl)c2)C1 (stereo not shown) [Example 40, Acetic acid 3-[2-(3,4-dichloro-phenyl)-2-(thiazol-2-ylcarbamoyl)-ethyl]-cyclopentyl ester] |  | 49 to 52 °C
CS(=O)(=O)c1ccc(C(CC2CC/C(=N/O)C2)C(=O)Nc2cnc(Br)cn2)cc1Cl (stereo not shown) [Example 52, N-(5-Bromo-pyrazin-2-yl)-2-(3-chloro-4-methanesulfonyl-phenyl)-3-(3-hydroxyimino-cyclopentyl)-propionamide] | excellent glucokinase activator in vivo activity | 100 to 106 °C
CS(=O)(=O)c1ccc(C(CC2CCC(=O)C2)C(=O)Nc2cnc(Br)cn2)cc1Cl (stereo not shown) [Example 49, N-(5-Bromo-pyrazin-2-yl)-2-(3-chloro-4-methanesulfonyl-phenyl)-3-(3-oxo-cyclopentyl)-propionamide] | excellent glucokinase activator in vivo activity | 97 to 103 °C
CNC(=O)NC(=O)C(CC1CCCC1=O)c1ccc(Cl)c(Cl)c1 (stereo not shown) [Example 27, 1-[2-(3,4-Dichloro-phenyl)-3-(2-oxo-cyclopentyl)-propionyl]-3-methyl-urea] |  | 63 to 65 °C
CS(=O)(=O)c1ccc(C(CC2CCC(=O)C2)C(=O)Nc2nccs2)cc1 (stereo not shown) [Example 44, 2-(4-Methanesulfonyl-phenyl)-3-(3-oxo-cyclopentyl)-N-thiazol-2-yl-propionamide] |  | 94 to 97 °C
O=C(Nc1nccs1)C(CC1CCC(F)(F)C1)c1ccc(Cl)c(Cl)c1 (stereo not shown) [Example 56, 2-(3,4-Dichloro-phenyl)-3-(3,3-difluoro-cyclopentyl)-N-thiazol-2-yl-propionamide] |  | 154 to 156 °C
CS(=O)(=O)c1ccc(C(CC2CCC(=O)CC2)C(=O)Nc2cnc(Br)cn2)cc1Cl (stereo not shown) [Example 59, N-(5-Bromo-pyrazin-2-yl)-2-(3-chloro-4-methanesulfonyl-phenyl)-3-(4-oxo-cyclohexyl)-propionamide] | excellent glucokinase activator in vivo activity | 
O=C1CCCC1CC(C(=O)Nc1nccs1)c1ccc(Cl)c(Cl)c1 (stereo not shown) [Example 28, 2-(3,4-Dichloro-phenyl)-3-(2-oxo-cyclopentyl)-N-thiazol-2-yl-propionamide] |  | 79 to 81 °C
CS(=O)(=O)c1ccc([C@@H](CC2CCC(=O)CC2)C(=O)Nc2cnc(Br)cn2)cc1Cl [Example 60, N-(5-Bromo-pyrazin-2-yl)-2(R)-(3-chloro-4-methanesulfonyl-phenyl)-3-(4-oxo-cyclohexyl)-propionamide] | excellent glucokinase activator in vivo activity | 
CS(=O)(=O)c1ccc(C(CC2CCOCC2)C(=O)Nc2cnc(Br)cn2)cc1Cl (stereo not shown) [Example 21, N-(5-Bromo-pyrazin-2-yl)-2-(3-chloro-4-methanesulfonyl-phenyl)-3-(tetrahydro-pyran-4-yl)-propionamide] | excellent glucokinase activator in vivo activity | 
CNC(=O)NC(=O)C(CC1CCC(=O)C1)c1ccc(Cl)c(Cl)c1 (stereo not shown) [Example 42, 1-[2-(3,4-Dichloro-phenyl)-3-(3-oxo-cyclopentyl)-propionyl]-3-methyl-urea] |  | 70 to 74 °C
CS(=O)(=O)c1ccc(C(CC2CCC(=NO)CC2)C(=O)Nc2cnc(Br)cn2)cc1Cl (stereo not shown) [Example 66, N-(5-Bromo-pyrazin-2-yl)-2-(3-chloro-4-methanesulfonyl-phenyl)-3-(4-hydroxyimino-cyclohexyl)-propionamide] | excellent glucokinase activator in vivo activity | 

SMILES | glucokinase activator in vivo activity when administered orally (decrease in blood glucose compared to vehicle) (C57BL/6J mice) | melting point
O=C(Nc1nccs1)C(CC1CCCC1O)c1ccc(Cl)c(Cl)c1 (stereo not shown) [Example 25, 2-(3,4-Dichloro-phenyl)-3-(2-hydroxy-cyclopentyl)-N-thiazol-2-yl-propionamide] |  | 86 to 88 °C
CNC(=O)NC(=O)C(CC1CCCCO1)c1ccc(Cl)c(Cl)c1 (stereo not shown) [Example 7, 1-[2-(3,4-Dichloro-phenyl)-3-(tetrahydro-pyran-2-yl)-propionyl]-3-methyl urea] |  | 172.8 to 174.2 °C
CO/N=C1/CCC(CC(C(=O)Nc2cnccn2)c2ccc(S(C)(=O)=O)c(Cl)c2)C1 (stereo not shown) [Example 54, 2-(3-Chloro-4-methanesulfonyl-phenyl)-3-(3-methoxyimino-cyclopentyl)-N-pyrazin-2-yl-propionamide] | excellent glucokinase activator in vivo activity | 85 to 87 °C
O=C1CCC(CC(C(=O)Nc2nccs2)c2ccc(Cl)c(Cl)c2)C1 (stereo not shown) [Example 43, 2-(3,4-Dichloro-phenyl)-3-(3-oxo-cyclopentyl)-N-thiazol-2-yl-propionamide] |  | 146 to 148 °C
O=C(Nc1nccs1)C(CC1CC/C(=N/O)C1)c1ccc(Cl)c(Cl)c1 (stereo not shown) [Example 50, 2-(3,4-Dichloro-phenyl)-3-(3-hydroxyimino-cyclopentyl)-N-thiazol-2-yl-propionamide] |  | 98 to 101 °C
CS(=O)(=O)c1ccc([C@@H](CC2CCC(=NO)CC2)C(=O)Nc2cnc(Cl)cn2)cc1Cl (stereo partly drawn) [Example 68, 2(R)-(3-Chloro-4-methanesulfonyl-phenyl)-N-(5-chloro-pyrazin-2-yl)-3-(4-hydroxyimino-cyclohexyl)-propionamide] | excellent glucokinase activator in vivo activity | 
CO/N=C1/CCC(CC(C(=O)Nc2nccs2)c2ccc(Cl)c(Cl)c2)C1 (stereo not shown) [Example 53, 2-(3,4-Dichloro-phenyl)-3-(3-methoxyimino-cyclopentyl)-N-thiazol-2-yl-propionamide] |  | 69 to 72 °C
CNC(=O)NC(=O)C(CC1CCC(O)C1)c1ccc(Cl)c(Cl)c1 (stereo not shown) [Example 35, 1-[2-(3,4-Dichloro-phenyl)-3-(3-hydroxy-cyclopentyl)-propionyl]-3-methyl-urea] |  | 82 to 84 °C
CS(=O)(=O)c1ccc(C(CC2CCCC2O)C(=O)Nc2nccs2)cc1 (stereo not shown) [Example 26, 3-(2-Hydroxy-cyclopentyl)-2-(4-methanesulfonyl-phenyl)-N-thiazol-2-yl-propionamide] |  | 205 to 206 °C
CS(=O)(=O)c1ccc(C(CC2CCC(O)C2)C(=O)Nc2nccs2)cc1 (stereo not shown) [Example 37, 3-(3-Hydroxy-cyclopentyl)-2-(4-methanesulfonyl-phenyl)-N-thiazol-2-yl-propionamide] |  | 69 to 72 °C
CO/N=C1/CCCC1CC(C(=O)Nc1cnccn1)c1ccc(S(C)(=O)=O)c(Cl)c1 (stereo not shown) [Example 33, 2-(3-Chloro-4-methanesulfonyl-phenyl)-3-(2-methoxyimino-cyclopentyl)-N-pyrazin-2-yl-propionamide] |  | 74 to 76 °C
CS(=O)(=O)c1ccc([C@@H](CC2CCC(=O)CC2)C(=O)Nc2cnc(Cl)cn2)cc1Cl [Example 61, 2(R)-(3-Chloro-4-methanesulfonyl-phenyl)-N-(5-chloro-pyrazin-2-yl)-3-(4-oxo-cyclohexyl)-propionamide] | excellent glucokinase activator in vivo activity | 
CC1(O)CCC(CC(C(=O)Nc2cnccn2)c2ccc(S(C)(=O)=O)c(Cl)c2)C1 (stereo not shown) [Example 57, 2-(3-Chloro-4-methanesulfonyl-phenyl)-3-(3-hydroxy-3-methyl-cyclopentyl)-N-pyrazin-2-yl-propionamide] |  | 78 to 84 °C
CS(=O)(=O)c1ccc([C@@H](CC2CCC(=NO)CC2)C(=O)Nc2cnc(Br)cn2)cc1Cl (stereo partly drawn) [Example 67, N-(5-Bromo-pyrazin-2-yl)-2(R)-(3-chloro-4-methanesulfonyl-phenyl)-3-(4-hydroxyimino-cyclohexyl)-propionamide] | excellent glucokinase activator in vivo activity | 
CS(=O)(=O)c1ccc(C(CC2CC/C(=N/O)C2)C(=O)Nc2cnccn2)cc1Cl (stereo not shown) [Example 51, 2-(3-Chloro-4-methanesulfonyl-phenyl)-3-(3-hydroxyimino-cyclopentyl)-N-pyrazin-2-yl-propionamide] |  | 205 to 207 °C
CS(=O)(=O)c1ccc(C(CC2CCOCC2)C(=O)Nc2cnc(/C(N)=N/O)cn2)cc1Cl (stereo not shown) [Example 23] | excellent glucokinase activator in vivo activity | 137.2 to 140.5 °C
